From patent publication US11311633B2, “Satiation peptides for weight loss and altered taste sensitivity” (University of Florida Research Foundation, Incorporated, priority 2016, dated 2022) come the findings set out here.

Test [1] deals with mice. The experiment in a line: Exendin-4 oral spray prior to meals, food intake. Format: in vivo. From the text:
PYY and GLP-1 are both produced in […] L-cells and secreted simultaneously into the blood stream in response to nutrient uptake. […] Similarly, a decrease in food intake of mice given Exendin-4 (Ex-4), a GLP-1 analog, in the form of an oral spray prior to meals was observed. Both of these peptides individually modulate body weight, we have evidence that, when used in combination, PYY and Ex-4 may have a synergistic effect on modulation of body weight.

In test [2] the test system is mice. As to the kind of experiment: PYY mouth spray, food intake after 24 hours fasting. Format: in vivo. Here is the method:
FIGS. 4A-4D depict the effects of Peptide YY Mouth Spray.
Synthetic PYY was purchased from Bachem, Inc USA (Cat #H-6042) and diluted in sterile H2O. Sterile un-used perfume sample vials (Saphora) were utilized to administer PYY in the form of a mouth spray. It was estimated that the volume of one spray approximates to about […].
Mice were conditioned three times to 24 hours fasting starting at the beginning of the dark cycle and ending at the end of the light cycle. At the end of the fasting cycle and as a part of conditioned routine, a sterile water spray had been administered into the mouth. All the experiments were done during the first hour of the dark cycle after fasting. Once the dark cycle started, mice were sprayed once with either PYY or sterile H2O in a total volume of […] per spray. After the treatment, mice were returned to their cages and ten minutes later pre-weighted chow was provided. One hour later, the amount of consumed chow had been recorded by measuring the leftover amount. When the experiments were repeated, mice were fasted only once a week with the control and experimental groups rotated.

With Exendin-4, in test [1], the food intake entry is on record as “decrease”.

For the substance “PYY: Synthetic PYY purchased from Bachem (Cat #H-6042), diluted in sterile H2O, given as mouth spray [Peptide YY]”, the “overall 24 hr period FI, experimental vs control group” value in test [2] (after PYY mouth spray vs sterile H2O) was “similar”. For the same substance, the “PYY dose response effect to FI” value in test [2] (mouth spray, FI measured after one hour) is reported as “significant”. For the same substance, the “less food consumed in one hour compared to control group sprayed with H2O” value in test [2] (one mouth spray, 5 μg per 100 g of body weight, after 24 hours fasting, average) amounted to 15%.
